According to BindingDB's records for doi:10.1021/acs.jmedchem.0c01160 (University of Groningen, 2020):

Target: T1, Macrophage migration inhibitory factor (Homo sapiens, UniProt P14174)
T1 sequence (P14174 whole entry): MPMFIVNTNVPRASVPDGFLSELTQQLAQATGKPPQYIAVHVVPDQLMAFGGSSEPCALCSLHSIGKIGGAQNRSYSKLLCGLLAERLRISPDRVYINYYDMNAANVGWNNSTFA
Assay: Inhibition of C-terminal His-tagged recombinant human MIF expressed in Escherichia coli BL21 (DE3) using 4-HPP as substrate preincubated for 10 mins followed by substrate addition by UV absorption spectrum analysis

IC50: 71 nM
SMILES: O=C(O)c1ccc(-c2ccc(-c3cc4ccc(O)cc4oc3=O)cc2)cc1
